Source: US20100280015A1 (priority 2007, published 2010)
Where a name gives a salt, the structure may show the parent alone.

Biological target: α7-subtype of nicotinic receptors (Rattus norvegicus, UniProt Q05941)
Test: biochemical
Assay type: binding

Chain of α7-subtype of nicotinic receptors (Q05941 23-502): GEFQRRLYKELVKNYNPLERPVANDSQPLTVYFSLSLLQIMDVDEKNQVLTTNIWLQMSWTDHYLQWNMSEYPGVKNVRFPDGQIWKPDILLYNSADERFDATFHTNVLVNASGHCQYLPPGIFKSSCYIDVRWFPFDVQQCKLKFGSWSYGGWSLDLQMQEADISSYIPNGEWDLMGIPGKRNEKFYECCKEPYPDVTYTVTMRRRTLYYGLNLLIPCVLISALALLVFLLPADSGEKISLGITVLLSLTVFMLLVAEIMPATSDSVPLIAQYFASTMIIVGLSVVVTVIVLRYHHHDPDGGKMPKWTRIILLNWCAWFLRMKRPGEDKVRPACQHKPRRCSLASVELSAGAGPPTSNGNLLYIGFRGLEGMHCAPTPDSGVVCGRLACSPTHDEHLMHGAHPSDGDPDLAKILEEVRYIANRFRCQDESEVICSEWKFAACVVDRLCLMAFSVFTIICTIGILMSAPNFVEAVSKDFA

SMILES: c1ccc(Oc2ccccc2-c2nnc(N3CCN4CCC3CC4)o2)cc1 [Compound A1, 4-[5-(2-Phenoxy-phenyl)-[1,3,4]oxadiazol-2-yl]-1,4-diaza-bicyclo[3.2.2]nonane fumaric acid salt]
- IC50: < 100 nM

SMILES: c1ccc(Oc2cccc(-c3nnc(N4CCN5CCC4CC5)o3)c2)cc1 [Compound A2, 4-[5-(3-Phenoxy-phenyl)-[1,3,4]oxadiazol-2-yl]-1,4-diaza-bicyclo[3.2.2]nonane fumaric acid salt]
- IC50: < 1000 nM
